Data on one compound can be found in US11479538B2, “Tetrazolone-substituted dihydropyridinone MGAT2 inhibitors” (BRISTOL-MYERS SQUIBB COMPANY, priority 2014, dated 2022).

The structures appear in SMILES notation.

This experiment concerns the target human MGAT-2 (Homo sapiens (Human), UniProt Q3SYC2). Kind of experiment: MGAT LCMS Assay. Type of experiment: biochemical. The conditions noted are these: human recombinant MGAT-2 membranes expressed in Sf9 cells; LC/MS readout of diolein; read-out: h-MGAT LCMS IC50. As to the method:
The MGAT enzyme reactions were performed in Corning FALCON® 96-well polypropylene plates, in a total volume of 60 μL of 50 mM potassium phosphate buffer pH 7.4, containing a final concentration of 100 μM 2-oleoylglycerol, 15 μM oleoyl-coenzyme A and […] human or mouse MGAT-2 or […] rat recombinant MGAT-2 membranes expressed in Sf9 cells. Assay plates were run through a fully automated robotics system and shaken for 5 seconds every minute for a total 10 minutes. The reactions were then quenched with 120 μL of ice cold methanol containing 1 μg/mL 1,2-distearoyl-rac-glycerol as the internal standard. Plates were shaken for 2 minutes and spun down to remove protein precipitation. After the spin, samples were transferred to LC/MS compatible PCR plates. For LC/MS analysis, a ThermoFisher Surveyor pump, utilizing a Waters SYMMETRY® C8, 50×2.1 mm column, was used for the chromatography of enzyme products. The buffer system consists of 0.1% formic acid in water with a mobile phase consisting 0.1% formic acid in methanol. The shallow gradient is 90-100% mobile phase in 0.2 min with a total run time of 2.3 min. […]
The exemplified Examples disclosed below were tested in the MGAT2 in vitro assays described above and were found having MGAT2 inhibitory activity. Table 1 below lists human MGAT2 IC50 values measured for the following examples.

human MGAT-2, sequence (Q3SYC2 whole entry): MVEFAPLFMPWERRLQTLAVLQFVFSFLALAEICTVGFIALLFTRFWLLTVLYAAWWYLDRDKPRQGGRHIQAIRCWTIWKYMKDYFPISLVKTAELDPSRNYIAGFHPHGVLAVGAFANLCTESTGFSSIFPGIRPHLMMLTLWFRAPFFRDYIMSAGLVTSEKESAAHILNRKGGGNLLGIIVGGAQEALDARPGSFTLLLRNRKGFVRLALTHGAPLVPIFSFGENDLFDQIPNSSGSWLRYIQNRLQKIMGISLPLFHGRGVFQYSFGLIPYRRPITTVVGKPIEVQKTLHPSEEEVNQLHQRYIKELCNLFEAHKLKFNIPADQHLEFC

Regarding `O=C1N[C@@](c2ccc(OCCCC(F)(F)F)cc2F)(C(F)(F)F)CC(c2ncc(C3CC3)s2)=C1n1nn[nH]c1=O` [Example 22, (S)-4-(5-cyclopropylthiazol-2-yl)-6-(2-fluoro-4-(4,4,4-trifluorobutoxy)phenyl)-3-(5-oxo-4,5-dihydro-1H-tetrazol-1-yl)-6-(trifluoromethyl)-5,6-dihydropyridin-2(1H)-one], the IC50 (in general, the point on the concentration scale where inhibition reaches its midpoint) is 2 nM.
